≈ marks a conversion by molar mass, not a printed value. Where two headings read alike, the source gives them in different places.
Columns and labels:
SW948 cells [1] = experiment: cell cycle analysis; format: cell-based, human
[2] = system: SW948CPTH cell lines recovered from xenografts; experiment: clonogenic assay on cell lines recovered from tumor xenografts; format: cell-based; conditions: Homo sapiens, cultured 2-4 weeks CPT-11-free
SW948CPTH = experiment: cell proliferation assay, cross-resistance to topoisomerase I and II inhibitors; format: cell-based, human
Text: (§1) Drug resistance to other topoisomerase I and II inhibitors was examined by determining the IC50 dose of each drug using a cell proliferation assay as shown in Table 3.

SW948 = experiment: as above; format: cell-based, human; conditions: Homo sapiens; SW948 parental; mean ± SD, 2-4 independent assays; read-out: Sensitivity expressed as IC50
Text: as §1

[3] = system: SW948 colon carcinoma cells; experiment: induction of early apoptosis (annexin V-FITC / propidium iodide, FACS); format: cell-based, human; conditions: SW948 in vitro, 4 days post-treatment (FIG. 10)
Text: 14. […] Floating and adherent cells were collected 4 days post-treatment. The treatments are described in the legend for FIG. 8. The cells were stained with annexin V-FITC and propidium iodide, then analyzed by FACS using CellQuest software (Beckton-Dickenson, San Diego, Calif.). Data points are the average±SEM of a representative experiment done in triplicate.

SW948CPTL cells [4] = experiment: intracellular accumulation of CPT-11 (HPLC), effect of verapamil; format: cell-based, human; conditions: SW948CPTL vs parent SW948; CPT-11 160 μM, 2 hours, 37° C. (FIG. 6A)
Text: 10. […] Cells were washed, trypsinized, and counted. Cell pellets were lysed with water and sonicated. […] Results were generated from three independent experiments. […] Data are expressed as mean±SD. […] Data are the mean±SD of two experiments done in triplicate.
Additionally, multidrug resistance can be evaluated by measuring the expression level of p-glycoprotein (p-gp) (Juliano et al Biochim Biophys Acta 11:152-162, 1976) and breast cancer resistant protein (BCRP) (Doyle et al Proc Natl Acad Sci U S A 95:15665-15670, 1998) in SW948 and the resistant SW948 cell lines (SW948CPTH and SW948CPTL). It is understood that the disclosed methods can also be used with other cell lines including other colon cancer cell lines. For example, the disclosed methods can be used with LS174T, WiDr, HT-29, SW403, DLD-1, SW480, SNU-C1, Caco-2, and COLO 205 cell lines.

SW948CPTH cells = experiment: cell cycle analysis; format: cell-based, human
SW948 cells [5] = experiment: clonogenic cell survival assay, CPT-11 IC50; format: cell-based; conditions: Homo sapiens
Description: 81. […] Cells were then washed with PBS and cultured in fresh medium without CPT-11 and a colony formation assay initiated. Ten days later, the surviving fraction of the SW948 and SW948CPTH cells was determined.
82. […] This level of sensitivity was similar to that reported for other cell lines (Kanzawa et al. Cancer Res 50:5919-5924, 1990; Kojima et al. Cancer Res 58:4368-4374, 1998; and Kojima et al. J Clin Invest 101:1789-1796, 1998).

[6] = system: SW948 human colon cancer xenografts; experiment: tumor xenograft growth; format: in vivo, Balb/c athymic nude mice; conditions: initial study: Erbitux 1 mg i.p. every 3 days, CPT-11 40 mg/kg i.v. every 6 days, 3 Gy radiation (FIG. 11); n=7
Description: 15. […] Erbitux® (1 mg) was administered i.p. every 3 days for 5 weeks beginning on day 22 after tumor cell injection. […] Mean change in tumor size relative to size on day 22 (n=7 mice/group) is shown. At the time of Erbitux® administration (day 22), the mean±SD size of the tumors were 71.8±39.8 mm^2.
16. […] Erbitux® (1 mg) was administered i.p. 2 times a week for 3 weeks (days 24, 27, 31, 34, 38, and 41) beginning on day 24 after tumor cell injection. […] Mean change in tumor size relative to size on day 24 (n=7 mice/group). At the time of Erbitux® administration (day 24), the mean±SD size of the tumors were 58.0±29.3 mm^2.
91. Additional studies against SW948 colon cancer cells have been carried out in vitro and with SW948 tumor xenografts. […] FIG. 10 illustrates the induction of apoptosis in SW948 cells in vitro following treatment with these agents. […] This experiment was run concurrently with a third experiment in which SW948CPTH cells were used in the xenograft (FIG. 13).
92. Balb/c athymic nude mice were injected subcutaneously with 2×10^7 SW948 or SW948CPTH cells. […] Change in average tumor size measured with calipers (surface area equal to product of two largest diameters) for each group relative to the size on day 24 was determined. […] Change in average tumor size relative to day 22 was monitored as described above for SW948 tumors.

SW948CPTL cells [7] = experiment: cell cycle analysis; format: cell-based, human
[8] = SW948 parent cell line, dose dependent

CCc1c2c(nc3ccc(OC(=O)N4CCC(N5CCCCC5)CC4)cc13)-c1cc3c(c(=O)n1C2)COC(=O)[C@]3(O)CC [CPT-11, Irinotecan]
G0-G1(%) (SW948 cells [1]; SW948, CPT-11 1 μg/ml): 36.0 ± 3.2%
S(%) (SW948 cells [1]; SW948, CPT-11 1 μg/ml): 39.6 ± 3.8%
G0-G1(%) (SW948 cells [1]; SW948, CPT-11 2 μg/ml): 22.1 ± 2.0%
G2-M(%) (SW948 cells [1]; SW948, CPT-11 2 μg/ml): 35.8 ± 5.1%
S(%) (SW948 cells [1]; SW948, CPT-11 2 μg/ml): 42.1 ± 6.7%
G0-G1(%) (SW948 cells [1]; SW948, CPT-11 5 μg/ml): 17.0 ± 1.9%
G2-M(%) (SW948 cells [1]; SW948, CPT-11 5 μg/ml): 41.0 ± 2.5%
S(%) (SW948 cells [1]; SW948, CPT-11 5 μg/ml): 42 ± 2.5%
change of S phase (SW948 cells [1]; SW948 parent cell line): No obvious changes
change of percentage of cells in the G0-G1 phase (SW948 cells [1]; [8]): decreased
change of percentage of cells in the G2-M phase (SW948 cells [1]; [8]): increased
IC50 ([2]; read-out: CPT-11 IC50 Dose, SW948CPTH xenograft #16 (CPT-11 treated tumor), 134 days after implant): 24.7 µg/mL (≈ 42.1 µM)
IC50 ([2]; read-out: CPT-11 IC50 Dose, SW948CPTH xenograft #51 (untreated tumor), 121 days after implant): 18 µg/mL (≈ 30.7 µM)
IC50 ([2]; read-out: CPT-11 IC50 Dose, SW948CPTH xenograft #53 (untreated tumor), 124 days after implant): 32.2 µg/mL (≈ 54.9 µM)
IC50 ([2]; read-out: CPT-11 IC50 Dose, SW948CPTH xenograft #54 (untreated tumor), 103 days after implant): 25.1 µg/mL (≈ 42.8 µM)
IC50 (SW948CPTH; Homo sapiens, read-out: Sensitivity expressed as IC50): 43.7 ± 8.6 µg/mL (≈ 74.5 µM)
change in resistance of SW948CPTH cells compared to the parental cell line SW948 (SW948CPTH; IC50 by cell proliferation assay (Table 3)): increased resistance
IC50 (SW948): 3 ± 0.4 µg/mL (≈ 5.11 µM)
induction of apoptosis [3]: high level of apoptosis
intracellular accumulation of CPT-11 (SW948CPTL cells [4]): lower than the parent cell line SW948
G0-G1(%) (SW948CPTH cells; CPT-11 1 μg/ml): 45.7 ± 6.2%
G2-M(%) (SW948CPTH cells; CPT-11 1 μg/ml): 8.3 ± 3.1%
S(%) (SW948CPTH cells; CPT-11 1 μg/ml): 46 ± 7.5%
G0-G1(%) (SW948CPTH cells; CPT-11 2 μg/ml): 44.6 ± 3.8%
G2-M(%) (SW948CPTH cells; CPT-11 2 μg/ml): 8.9 ± 1.9%
S(%) (SW948CPTH cells; CPT-11 2 μg/ml): 46.5 ± 3.9%
G0-G1(%) (SW948CPTH cells; CPT-11 5 μg/ml): 45.0 ± 3.0%
G2-M(%) (SW948CPTH cells; CPT-11 5 μg/ml): 12.2 ± 2.3%
S(%) (SW948CPTH cells; CPT-11 5 μg/ml): 42.8 ± 4.9%
change of cell cycle (SW948CPTH cells; similar amount of CPT-11): did not cause any change
IC50 (SW948 cells [5]; SW948, read-out: CPT-11 IC50 concentration (colony formation)): 2.8 µg/mL (≈ 4.77 µM)
IC50 (SW948 cells [5]; read-out: CPT-11 IC50 of untreated SW948 cells, untreated SW948, mean value): 2.1 ± 0.3 µg/mL (≈ 3.58 µM)
complete regressions [6]: 0/7
G0-G1(%) (SW948CPTL cells [7]; CPT-11 1 μg/ml): 50.0 ± 1.7%
G2-M(%) (SW948CPTL cells [7]; CPT-11 1 μg/ml): 10.0 ± 1.4%
S(%) (SW948CPTL cells [7]; CPT-11 1 μg/ml): 40.3 ± 2.4%
G2-M(%) (SW948CPTL cells [7]; CPT-11 2 μg/ml): 11.2 ± 2.6%
S(%) (SW948CPTL cells [7]; CPT-11 2 μg/ml): 43.1 ± 6.5%
G2-M(%) (SW948CPTL cells [7]; CPT-11 5 μg/ml): 13.9 ± 2.2%
S(%) (SW948CPTL cells [7]; CPT-11 5 μg/ml): 40.8 ± 6.4%
change of cell cycle (SW948CPTL cells [7]; similar amount of CPT-11): did not cause any change

From patent publication US20070148710A1, “Cpt resistant cell line” (priority 2003, published 2007)
